From article PMC4420518 (Protein Science : A Publication of the Protein Society, 2015)

Columns and labels:
[1] = tested on: TpsB4-P1 (TpsB4 POTRA1 domain); assay: 1H-15N HSQC NMR titration of 15N-labelled TpsB4-P1 with peptides; assay type: binding, P. aeruginosa
[2] = target: TpsB4 POTRA1 domain (TpsB4-P1; residues 42-121) (P. aeruginosa); assay: NMR titration

Row | Substance | binding to 15N-labelled TpsB4-P1 (CSPs in 1H-15N HSQC) ([1]; 200 μM TpsB4-P1, synthetic peptides, free N- and C-termini) | exchange regime of interaction with TpsB4 POTRA1 ([1]; NMR timescale) | Kd [2]
1 | QVFLVNPNGVLFGRGAQ [CupB5^80–96] | interacts with TpsB4‐P1 with a virtually identical pattern of CSPs | fast exchange | –
2 | TpsA4^79-95 peptide | – | – | 1.49 mM
